Laboratory results published in patent US20240392305A1, “GENETICALLY MODIFIED BACTERIA AND USES THEREOF FOR THE INDUCIBLE EXPRESSION OF A NUCLEIC SEQUENCE OF INTEREST” (Institut National de Recherche Pour l'Agriculture, …, priority 2021, published 2024).

Columns and labels:
elafin = test: Western blot detection of secreted elafin in culture supernatants; type: cell-based, human
Description: FIG. 3. Production of elafin detected by Western blot in the supernatant of different S. thermophilus strains. (A) At OD600 0.2 and 0.5 for strain TIL1536 (ΔhtrA::aphA3 ΔsepM::spec), TIL1551 (blp::shp-rgg1358-Pster1357-elafin-P32 cm ΔhtrA::aphA3 ΔywdF::spec) and TIL1552 (blp::rgg1358-Pster1357-elafin-P32 cm ΔhtrA::aphA3 ΔywdF::spec). (B) At OD600 1 and 2 for strain TIL1536, TIL1551 and TIL1552. (C) At OD600 0.2, 0.5 and 1 for strain TIL1567 (blp::rgg1358-Pster1357-luxAB-aphA3 ΔhtrA::aphA3 ΔywdF::spec ΔpptAB::erm). Purified elafin was used as a positive control and strain TIL1536 as negative control (elafin non-producing strain). Induction of the production of elafin with the addition of synthetic SHP in the culture medium is mentioned with: +SHP.
For the preparation of the samples, derivatives of strain CNRZ1066 were grown in CDM at 42° C. When necessary, induction was performed with the addition of SHP peptide (EGIIVIVVG, SEQ ID NO: 24) at a final concentration of 1 μM for strain TIL1552 and 0.5 µM for strain TIL1567 in the growth medium at OD600 of 0.2. When the cultures reached the desired OD600, 10 ml were centrifuged at 3200 g for 10 min at room temperature. […]
For the Western blot experiments, 10 μl of the samples were diluted in Laemmli Buffer (4×) and heated to 95° C. for 5 minutes. […] Detection was finally recorded using a Chemidoc (Biorad).

SHP/Rgg1358 system = test: Maximum luciferase activity of strain TIL1566 with different synthetic SHPs; type: cell-based, S. thermophilus; settings: strain TIL1566 in CDM, 37° C., synthetic peptide 1 μM; mean of three independent experiments
Protocol: For the assessment of the maximum luciferase activity reached with the addition of different SHPs in the culture media of strain TIL1566 (blp::rgg1358-Pster1357-luxAB-aphA3 ΔpptAB::erm), cells were grown overday at 37° C. in CDM. These cultures were diluted to a final OD600 of 0.05 in 1 ml of CDM. Synthetic SHP peptides were added in the culture medium at a final concentration of 1 μM. 250 μl of these diluted cultures were transferred to the wells of a covered sterile white microplate with a transparent bottom. The cultures' OD600 and luminescence values were monitored at 37° C. every 10 minutes in an Infinite M200 spectroluminometer, as previously described (Fontaine et al., J. Bacteriol. 192:1444-1454, 2010). The maximum of luminescence was recovered from each kinetic. The maximum activity was reported in Relative Luminescent Units divided by the OD600 (RLU/OD600) and measured as the mean of three independent experiments.
In order to assess their efficiency, we used their synthetic mature form to record the maximum luciferase activity of strain TIL1566 (blp::rgg1358-Pster1357-luxAB ΔpptAB::erm) in CDM and compared it to the one obtained with SHP1358. We chose the mature SHPs of strain CNRZ1066 similar to the mature SHP1358 (EGIIVIVVG, SEQ ID NO: 24): the SHP associated to Rgg STR_RS07375 (EGIIVILVG, SEQ ID NO: 25), the SHP associated to Rgg STR_RS09145 (EGIIVIGVG, SEQ ID NO: 26) and the SHP associated to Rgg STR_RS04530 (ESIIVIAVG, SEQ ID NO: 27). The most efficient peptide was ESIIVIAVG (SEQ ID NO: 27) with a maximum relative luciferase activity that reached 95% of the one obtained with SHP1358. The two other peptides were less efficient with percentage of 86% with EGIIVILVG (SEQ ID NO: 25) and only 27% with EGIIVIGVG (SEQ ID NO: 26).

| Sequence | elafin level in induced culture versus uninduced culture (elafin; strain 1552, SHP 1 μM added at OD600 0.2, sampled at OD600 0.5) | production of elafin in the extracellular medium on addition of SHP (elafin; strain TIL1567 (ΔpptAB), SHP 0.5 μM added at OD600 0.2, detected at OD600 0.5 and 1) | maximum relative luciferase activity, percentage of the one obtained with SHP1358 (SHP/Rgg1358 system) [%] |
| --- | --- | --- | --- |
| EGIIVIVVG (listed as Streptococcus thermophilus) [SHP1358, mature small hydrophobic peptide of S. thermophilus LMD-9, inducer of Rgg1358] | much greater | restored | – |
| ESIIVIAVG (listed as Streptococcus thermophilus) | – | – | 95 |
| EGIIVILVG (listed as Streptococcus thermophilus) | – | – | 86 |
| EGIIVIGVG (listed as Streptococcus thermophilus) | – | – | 27 |
